{
  "source": "paper PMC8348236",
  "about": "“Improving the Utility of a Dynorphin Peptide Analogue Using Mannosylated Glycoliposomes” (International Journal of Molecular Sciences, 2021)",
  "key": {"KOR [1]": {"target": "T1, KOR (Mus musculus, UniProt P33534)", "T1 sequence (P33534 whole entry)": "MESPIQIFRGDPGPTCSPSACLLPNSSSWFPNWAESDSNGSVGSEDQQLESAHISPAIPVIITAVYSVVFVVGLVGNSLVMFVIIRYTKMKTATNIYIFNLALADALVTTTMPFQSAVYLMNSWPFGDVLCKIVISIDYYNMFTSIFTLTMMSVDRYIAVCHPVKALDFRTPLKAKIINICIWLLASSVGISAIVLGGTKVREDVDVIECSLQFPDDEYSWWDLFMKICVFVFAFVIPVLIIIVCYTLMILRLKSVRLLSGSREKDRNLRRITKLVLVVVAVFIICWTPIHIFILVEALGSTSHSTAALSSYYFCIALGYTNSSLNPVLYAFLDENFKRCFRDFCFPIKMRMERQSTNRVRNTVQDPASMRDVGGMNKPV", "assay": "In vitro dopamine modulation in fresh mouse striatum homogenates", "conditions": "mouse (C57BL/6) striatal homogenate, 90 min, 4 °C in the dark, LC/MS, average ± SD, n = 5, PBS control 0.54 ± 0.07", "description": "The gently homogenized tissue was treated with either PBS or dynantin at 1 and 10 µM concentrations for 90 min, after which dopamine levels were analyzed.\nStriatal tissue was collected from the brains of sacrificed mice (n = 15), gently homogenized and then treated with either PBS (60 µL, n = 5) or dynantin in PBS at a concentration of either 1 µM (60 µL, n = 5) or 10 µM (60 µL, n = 5) for 90 min at 4 °C in the dark. Dopamine was extracted and its levels analyzed by LC/MS in the presence of 0.1% formic acid.\nAnalyses were performed using an Acquity Class H UPLC system with an Acquity QDa detector (Waters Limited, Mississauga, ON, Canada). Separations took place on an Acquity UPLC BEH C18 column, 1.7 µm, 100 mm × 2.1 mm(Waters Limited, Mississauga, ON, Canada), and were achieved using a binary gradient elution (Table 3) of water and acetonitrile (both with 0.1% formic acid, v/v) and a uniform flow rate of 0.4 mL/min. […]\nMale C57BL/6 mice (n = 15) were sacrificed by CO2 asphyxiation and cervical dislocation. […] The amount of dopamine extracted was analyzed via LC/MS (5 µL injections) and quantified using the dopamine: dopamine-D2 peak area ratio and a standard curve that was generated using increasing concentrations of dopamine in the presence of a set concentration of the dopamine-D2 internal standard. […]"}, "[2]": {"conditions": "peptide without delivery system; cited from earlier work", "excerpt": "Initially, the ability of DS1 and DS2 to entrap and protect dynantin from proteolytic degradation in human plasma ex vivo was compared (Figure 3A)."}, "in vivo": {"assay": "in vivo", "conditions": "female, BALB/c, mouse, inhaled or intranasal, 2 ug"}, "[3]": {"conditions": "female BALB/c mice, intranasal, 2.0 µg, 20 min; average ± SD of 5 mice"}, "KOR [4]": {"target": "T1, KOR", "assay": "In vivo striatal dopamine modulation after intranasal administration", "conditions": "female BALB/c mice, 2.0 µg dynantin, 20 min after administration, LC/MS, average ± SD of 5 mice", "description": "The ability of the glycoliposome delivery systems to improve both the delivery and activity of dynantin in the brain was studied in an in vivo mouse model. Female BALB/c mice (5 per group) were intranasally administered dynantin (2.0 µg dose) alone or entrapped in either DS1 or DS2. Mice were sacrificed 20 min later and blood (sera), lungs and brains were collected. […] Striatum tissue was immediately removed and neurotransmitter levels analyzed by LC/MS.\nDynantin (2.0 µg total dose) was administered intranasally to female BALB/c mice (5 per group) either alone or entrapped with DS1 or DS2 (1:5 ratio of peptide: particles). The mice were euthanized 20 min after administration and the lung, brain, and blood (sera) were collected. Brains were immediately dissected on ice to obtain striatum tissue from which dopamine was extracted and its levels analyzed by LC/MS in the presence of 0.1% formic acid (A). […]\nFor each mouse, blood was placed in sera tubes, which were spun at 10,000 rpm for 5 min and sera collected. […] The amount of dopamine extracted was analyzed via LC/MS (5 µL injections) and quantified using the dopamine: dopamine-D2 peak area ratio and a standard curve that was generated using increasing concentrations of dopamine in the presence of a set concentration of the dopamine-D2 internal standard. […]"}},
  "data": [
    {"compound": "CC[C@H](C)[C@H](NC(=O)[C@H](CCCNC(=N)N)NC(=O)[C@H](CCCNC(=N)N)NC(=O)[C@H](CC(C)C)NC(=O)[C@H](Cc1ccccc1)NC(=O)CNC(=O)CNC(=O)[C@@H](C)Cc1c(C)cc(O)cc1C)C(=O)N[C@@H](CCCNC(=N)N)C(=O)N1CCC[C@H]1C(=O)N[C@@H](CCCCN)C(N)=O", "note": "[Dynantin]", "values": [
      {"measurement": "striatal dopamine level, 1 µM dynantin", "setting": "KOR [1]; 1 µM in PBS", "result": "0.78 ± 0.10", "unit": "ng/mg"},
      {"measurement": "striatal dopamine level, 10 µM dynantin", "setting": "KOR [1]; 10 µM in PBS", "result": "0.98 ± 0.09", "unit": "ng/mg"},
      {"measurement": "time to rapid and complete degradation in human plasma", "setting": "[2]", "result": "≤ 12", "unit": "h"},
      {"measurement": "tissue level at time at 20 min", "setting": "in vivo; brain (remaining tissue after removal of striatum)", "result": "560 ± 200", "unit": "ng/g"},
      {"measurement": "tissue level at time at 20 min", "setting": "in vivo; lung", "result": "560 ± 120", "unit": "ng/g"},
      {"measurement": "level at 20 min", "setting": "in vivo; serum", "result": "1300 ± 160", "unit": "ng/mL"},
      {"measurement": "percentage of total dose recovered, Brain", "setting": "[3]", "result": "8.15 ± 3.06", "unit": "%"},
      {"measurement": "percentage of total dose recovered, Lung", "setting": "[3]", "result": "4.93 ± 0.89", "unit": "%"},
      {"measurement": "percentage of total dose recovered, Sera", "setting": "[3]", "result": "21.66 ± 3.99", "unit": "%"},
      {"measurement": "striatal dopamine level in vivo", "setting": "KOR [4]", "result": "0.58 ± 0.05", "unit": "ng/mg"}
    ]}
  ]
}
